One assay addresses HDAC. Nature of the assay: Assay of enzyme inhibition of HDAC (BIOMOL kit, fluorescence). It is filed as biochemical. As to conditions: nuclear fraction of Hela cells; substrate 200 µM; 15 min at RT. As to the method: The in-vitro activity of HDAC inhibitors was assayed using a BIOMOL Kit, according to the instructions from the manufacturer (Biomolecular Research Laborator). 15 µl of 30 x diluted nuclear fraction of Hela cells, was diluted to 50 µl with the assay buffer containing the HDAC inhibitor and the substrate (lysine with acetylated amino group on the side chain) at a concentration of 200 µM. The samples were incubated for 15 min at RT and then exposed to a developer (10 min at RT). In this last step a fluorophore was produced, whose fluorescence was measured using an excitation wavelength of 355 nm and an emission at 460 nm. The IC50 was calculated using GraphPad Software.

A further assay has as its system HCT-116. Nature of the assay: Cell growth, CellTiter-Glo Luminescent Cell Viability Assay (antiproliferative assay). It is filed as cell-based. As to conditions: Homo sapiens; HCT-116 cells, incubated for 72 h; read-out: HCT116 IC50. The source says: (§1) CellTiter-Glo® Luminescent Cell Viability Assay (Promega) is a homogeneous method of determining the number of viable cells in culture based on quantitation of the present ATP, which indicates the presence of metabolically active cells. The homogeneous assay procedure involves addition of a single reagent (CellTiter-Glo® Reagent) directly to the cells, which leads to cell lysis and generation of a luminescent signal proportional to the amount of the ATP and the number of cells present in culture. The assay relies on the properties of a proprietary thermostable luciferase (Ultra-Glo® recombinant luciferase), which generates a luminescent signal. K562, A549, and HCT-116 cells, in exponential growth, were incubated for 72 h with different concentrations of the inhibitors. After 72 h, a volume of CellTiter-Glo® Reagent equal to the volume of cell culture medium was added. The content was mixed for 2 min to induce cell lysis. The luminescence was recorded after further 10 min at RT in order to obtain a stable luminescent signal.
(§2) The IC50 was calculated using GraphPad Software.
(In general: In ATP-based viability assays light output follows the ATP content of the culture.)

A further assay has as its system K562. The description is as above. Conditions: Homo sapiens; K562 cells, incubated for 72 h. It is filed as cell-based.
Source text: as §1, §2

For a further assay, the system named is A549. The assay is described as above. As to conditions: Homo sapiens; A549 cells, incubated for 72 h. It is filed as cell-based.
Source text: as §1, §2

For `CC(=O)N1CCC2(CC(=O)c3cc(/C=C/C(=O)NO)ccc3O2)C1` (racemic) [Example 5, (±)-(E)-3-[1'-Acetyl-4-oxo-spiro(chromane-2,3'-pyrrolidine)-6-yl]-N-hydroxy-acrylamide], the IC50 – broadly, the concentration needed to halve the response being measured – against HDAC is 0.1 to 1 µM; in the assay with HCT-116, no less than 3 µM; in the assay with K562, no less than 3 µM; in the assay with A549 it was no less than 3 µM.
As to `O=C(/C=C/c1ccc2c(c1)C(=O)NC1(CCCN(CCc3ccccc3)C1)O2)NO` (racemic) [Example 43, (±)-(E)-3-{1'-(2-Phenyl-ethyl)-3,4-dihydro-4-oxo-spiro[2H-(1,3)-benzoxazine-2,3'-piperidin]-6-yl}-N-hydroxy-acrylamide], the half-maximal inhibitory concentration (IC50) against HDAC was no more than 0.1 µM; in the assay on HCT-116, no more than 1 µM; with K562, no more than 1 µM; in the assay on A549, no more than 1 µM.
As to `O=C(/C=C/c1ccc2c(c1)C(=O)CC1(CNC1)O2)NO` [Example 30, (E)-3-[4-Oxo-spiro(chromane-2,3'-azetidine)-6-yl]-N-hydroxy-acrylamide], the half-maximal inhibitory concentration (IC50) is 0.1 to 1 µM on HDAC, no less than 3 µM in the assay with HCT-116, 1 to 3 µM in the assay on K562 and no less than 3 µM with A549.
`Cn1cc(CN2CCCC3(C2)NC(=O)c2cc(/C=C/C(=O)NO)ccc2O3)c2ccccc21` (racemic) [Example 46, (±)-(E)-3-{1'-(1-Methyl-1H-indol-3-ylmethyl)-4-oxo-spiro[2H-(1,3)-benzoxazine-2,3'-piperidin]-6-yl}-N-hydroxy-acrylamide]: the IC50 is 0.1 to 1 µM against HDAC, no more than 1 µM with HCT-116, no more than 1 µM with K562 and no more than 1 µM in the assay with A549.
For `O=C(/C=C/c1ccc2c(c1)C(=O)CC1(CCCNC1)O2)NO` (racemic) [Example 12, (±)-(E)-3-[4-Oxo-spiro(chromane-2,3'-piperidine)-6-yl]-N-hydroxy-acrylamide], the concentration for half-maximal inhibition (IC50) on HDAC was 0.1 to 1 µM; with HCT-116 it was no more than 1 µM; in the assay with K562, no more than 1 µM; with A549 it was no more than 1 µM.
On to `O=C(/C=C/c1ccc2c(c1)C(=NO)CC1(CCCN(C3CCCC3)C1)O2)NO` (centres unmarked) [Example 54, (E)-3-(1'-Cyclopentyl-4-(hydroxyimino)spiro[chroman-2,3'-piperidine]-6-yl)-N-hydroxyacrylamide], for which the concentration for half-maximal inhibition (IC50) is no more than 0.1 µM against HDAC, no more than 1 µM in the assay on HCT-116, no more than 1 µM in the assay on K562 and no more than 1 µM in the assay on A549.
In the case of `O=C(/C=C/c1ccc2c(c1)C(=O)CC1(CCCNCC1)O2)NO` (racemic) [Example 22, (±)-(E)-3-[4-Oxo-spiro(chromane-2,4'-azepane)-6-yl]-N-hydroxy-acrylamide], the IC50 at HDAC is 0.1 to 1 µM; in the assay on HCT-116 it was 1 to 3 µM; in the assay with K562, no less than 3 µM; in the assay on A549, no less than 3 µM.
With `Cn1cc(CN2CCCC3(CC2)CC(=O)c2cc(/C=C/C(=O)NO)ccc2O3)c2ccccc21` (racemic) [Example 47, (±)-(E)-3-[1'-(1-Methyl-1H-indol-3-ylmethyl)-4-oxo-spiro(chromane-2,4'-azepane)-6-yl]-N-hydroxy-acrylamide], the 50% inhibitory concentration (IC50) on HDAC was 0.1 to 1 µM.
For `O=C(/C=C/c1ccc2c(c1)C(=O)CC1(CCCN(CCc3ccccc3)C1)O2)NO` (racemic) [Example 20, (±)-(E)-3-[1'-(2-Phenyl-ethyl)-4-oxo-spiro(chromane-2,3'-piperidine)-6-yl]-N-hydroxy-acrylamide], the IC50 on HDAC was no more than 0.1 µM; in the assay with HCT-116 it was no more than 1 µM; in the assay on K562, no more than 1 µM; in the assay on A549 it was no more than 1 µM.
As for `O=C(/C=C/c1ccc2c(c1)C(=O)CC1(CCCN(Cc3ccc(F)cc3)C1)O2)NO` (racemic) [Example 19, (±)-(E)-3-[1'-(4-Fluoro-benzyl)-4-oxo-spiro(chromane-2,3'-piperidine)-6-yl]-N-hydroxy-acrylamide], the IC50 was no more than 0.1 µM at HDAC, no more than 1 µM with HCT-116, no more than 1 µM in the assay on K562 and 1 to 3 µM with A549.
As to `O=C(/C=C/c1ccc2c(c1)C(=O)CC1(CN(CCc3ccc(F)cc3)C1)O2)NO` [Example 35, (E)-3-{1'-[2-(4-Fluoro-phenyl)-ethyl]-4-oxo-spiro(chromane-2,3'-azetidine)-6-yl}-N-hydroxy-acrylamide], the IC50 against HDAC is 0.1 to 1 µM; with HCT-116, no more than 1 µM; in the assay on K562 it was no more than 1 µM; with A549, 1 to 3 µM.
With `O=C(/C=C/c1ccc2c(c1)C(=O)CC1(CCNC1)O2)NO` (racemic) [Example 1, (±)-(E)-3-[4-Oxo-spiro(chromane-2,3'-pyrrolidine)-6-yl]-N-hydroxy-acrylamide], the IC50 on HDAC is 0.1 to 1 µM; in the assay on HCT-116 it was 1 to 3 µM; in the assay on K562, no less than 3 µM; in the assay with A549, 1 to 3 µM.
For the molecule `O=C(/C=C/c1ccc2c(c1)C(=O)CC1(CN(Cc3ccccc3)C1)O2)NO` [Example 31, (E)-3-[1'-Benzyl-4-oxo-spiro(chromane-2,3'-azetidine)-6-yl]-N-hydroxy-acrylamide], the IC50 at HDAC was no more than 0.1 µM; in the assay on HCT-116 it was no more than 1 µM; with K562, no more than 1 µM; in the assay on A549, no more than 1 µM.
Take `Cn1cc(CN2CC3(CC(=O)c4cc(/C=C/C(=O)NO)ccc4O3)C2)c2ccccc21` [Example 44, (E)-3-[1'-(1-Methyl-1H-indol-3-ylmethyl)-4-oxo-spiro(chromane-2,3'-azetidine)-6-yl]-N-hydroxy-acrylamide]: the IC50 against HDAC is no more than 0.1 µM; in the assay with HCT-116, no more than 1 µM; with K562, no more than 1 µM; in the assay on A549, no more than 1 µM.
`CON=C1CC2(CCCN(Cc3ccc(F)cc3)C2)Oc2ccc(/C=C/C(=O)NO)cc21` (centres unmarked) [Example 53, (E)-3-(1'-(4-Fluorobenzyl)-4-(methoxyimino)spiro[chroman-2,3'-piperidine]-6-yl)-N-hydroxyacrylamide]: the concentration for half-maximal inhibition (IC50) is no less than 1 µM against HDAC, 1 to 3 µM in the assay with HCT-116, 1 to 3 µM in the assay on K562 and no less than 3 µM in the assay on A549.
As to `CC(=O)N1CC2(CC(=O)c3cc(/C=C/C(=O)NO)ccc3O2)C1` [Example 36, (E)-3-[1'-Acetyl-4-oxo-spiro(chromane-2,3'-azetidine)-6-yl]-N-hydroxy-acrylamide], the IC50 on HDAC was 0.1 to 1 µM; in the assay with HCT-116, no less than 3 µM; with K562, no less than 3 µM; in the assay with A549, no less than 3 µM.
Take `CN1CCC2(CC(=O)c3cc(/C=C/C(=O)NO)ccc3O2)C1` (racemic) [Example 7, (±)-(E)-3-[1'-Methyl-4-oxo-spiro(chromane-2,3'-pyrrolidine)-6-yl]-N-hydroxy-acrylamide]: the IC50 against HDAC was 0.1 to 1 µM; with HCT-116 it was no more than 1 µM; with K562, no more than 1 µM; in the assay with A549, no more than 1 µM.
For the molecule `Cc1cc(/C=C/C(=O)NO)cc2c1OC1(CCN(Cc3ccccc3)CC1)CC2=O` [Example 52, (E)-3-(1'-Benzyl-8-methyl-4-oxospiro[chroman-2,4'-piperidine]-6-yl)-N-hydroxy-acrylamide], the IC50 was 0.1 to 1 µM against HDAC, no more than 1 µM with HCT-116, no more than 1 µM in the assay with K562 and 1 to 3 µM in the assay with A549.
In the case of `O=C(/C=C/c1ccc2c(c1)C(=O)CC1(CCCN(Cc3ccccc3)C1)O2)NO` (single isomer, unassigned; (+)) [Example 18, (+)-(E)-3-[1'-Benzyl-4-oxo-spiro(chrormane-2,3'-piperidine)-6-yl]-N-hydroxy-acrylamide], the half-inhibitory concentration (IC50) on HDAC was 0.1 to 1 µM; with HCT-116, no more than 1 µM; in the assay on K562, no more than 1 µM; with A549 it was 1 to 3 µM.
Regarding `O=C(/C=C/c1ccc2c(c1)C(=O)CC1(CCCN(CCc3ccccc3)CC1)O2)NO` (racemic) [Example 28, (±)-(E)-3-[1'-(2-Phenyl-ethyl)-4-oxo-spiro(chromane-2,4'-azepane)-6-yl]-N-hydroxy-acrylamide], the IC50 is no more than 0.1 µM at HDAC, no more than 1 µM with HCT-116, no more than 1 µM in the assay on K562 and no more than 1 µM in the assay on A549.
As to `O=C(/C=C/c1ccc2c(c1)C(=O)CC1(CCCN(C(=O)c3ccccc3)CC1)O2)NO` (racemic) [Example 25, (±)-(E)-3-[1'-Benzoyl-4-oxo-spiro(chromane-2,4'-azepane)-6-yl]-N-hydroxy-acrylamide], the IC50 was 0.1 to 1 µM on HDAC, no more than 1 µM with HCT-116, 1 to 3 µM in the assay with K562 and no less than 3 µM in the assay on A549.
For `CN1CCCC2(CC1)CC(=O)c1cc(/C=C/C(=O)NO)ccc1O2` (racemic) [Example 26, (±)-(E)-3-[1'-Methyl-4-oxo-spiro(chromane-2,4'-azepane)-6-yl]-N-hydroxy-acrylamide] the same measures were 0.1 to 1 µM, no more than 1 µM, no more than 1 µM and no more than 1 µM.
At HDAC, `CCN1CCCC2(CC(=O)c3cc(/C=C/C(=O)NO)ccc3O2)C1` (racemic) [Example 48, (±)-(E)-3-[1'-Ethyl-4-oxo-spiro(chromane-2,3'-piperidine)-6-yl]-N-hydroxy-acrylamide] had an IC50 of 0.1 to 1 µM.

(Values after EP2488529B1, “Spirocyclic derivatives as histone deacetylase inhibitors” (DAC S.r.l., priority 2009, dated 2011).)
